# Measurements taken from article PMC10482274, “Probing the substrate binding modes and catalytic mechanisms of BLEG-1, a promiscuous B3 metallo-β-lactamase with glyoxalase II properties” (PLOS ONE, 2023).
# Target: T1, BLEG-1 (B3 metallo-β-lactamase) (Shouchella lehensis, UniProt A0A060M4R1)
# T1 construct: gene BleG1_2478; wild-type recombinant BLEG-1 (26 kDa), purified by Ni-NTA
# Experiment: circular dichroism titration ([…] nm, non-linear regression); hydrolysis assay at […] nm with the purified enzyme
# Type: binding
# T1 sequence (A0A060M4R1 entry or part of it): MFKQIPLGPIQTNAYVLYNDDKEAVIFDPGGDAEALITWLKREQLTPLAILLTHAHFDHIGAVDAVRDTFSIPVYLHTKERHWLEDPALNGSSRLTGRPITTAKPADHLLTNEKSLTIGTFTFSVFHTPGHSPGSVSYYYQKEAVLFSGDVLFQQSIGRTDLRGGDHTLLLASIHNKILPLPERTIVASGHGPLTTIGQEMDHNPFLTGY
compound,measurement,value
CC1(C)S[C@@H]2[C@H](NC(=O)[C@H](N)c3ccccc3)C(=O)N2[C@H]1C(=O)O [ampicillin],Kd,1510 nM
